Results as given in patent US9382228B2 (priority 2013, dated 2016).

Key:
[1] = system: M-NFS-60 cells; assay: cells; details: 67 h, read-out: M-NFS-60 cell proliferation
Method: M-NFS-6 Cell Proliferation Assay
A serial dilution of test compound was dispensed into a 384-well black clear bottom plate (Corning, Corning, N.Y.). Two thousand five hundred cells were added per well in 50 μL complete growth medium. […] IC50 values were calculated from a series of percent inhibition values determined at a range of inhibitor concentrations using software routines as implemented in the GraphPad Prism software package.

[2] = system: osteoclast precursors; assay: cells; format: cell-based; details: read-out: Osteoclast assay
[3] = target: T1, unphosphorylated c-FMS kinase (uFMS, Seq. ID no. 1) (Homo sapiens, UniProt P07333); assay: biochemical
T1 sequence (P07333 538-972): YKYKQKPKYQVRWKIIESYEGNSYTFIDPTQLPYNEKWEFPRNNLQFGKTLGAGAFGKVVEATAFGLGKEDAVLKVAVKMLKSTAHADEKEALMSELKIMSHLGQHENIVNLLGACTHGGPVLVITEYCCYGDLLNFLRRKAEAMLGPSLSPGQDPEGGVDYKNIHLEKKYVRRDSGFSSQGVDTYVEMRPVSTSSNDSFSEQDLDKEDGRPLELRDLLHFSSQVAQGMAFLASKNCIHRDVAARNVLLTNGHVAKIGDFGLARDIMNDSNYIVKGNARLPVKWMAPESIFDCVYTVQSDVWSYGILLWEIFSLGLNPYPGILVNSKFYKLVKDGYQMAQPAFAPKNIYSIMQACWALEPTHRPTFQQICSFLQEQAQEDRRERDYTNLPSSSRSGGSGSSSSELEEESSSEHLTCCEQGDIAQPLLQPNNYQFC
Method: In this assay, the oxidation of NADH (thus the decrease at A340 nm) was continuously monitored spectrophometrically. The reaction mixture (100 μL) contained FMS (purchased from Millipore) (10 nM), polyE4Y (1 mg/mL), MgCl2 (10 mM), pyruvate kinase (4 units), lactate dehydrogenase (0.7 units), phosphoenol pyruvate (1 mM), NADH (0.28 mM) and ATP (500 μM) in 90 mM Tris buffer containing 0.2% octyl-glucoside and 1% DMSO, pH 7.5. The inhibition reaction was started by mixing serial diluted test compound with the above reaction mixture. The absorption at 340 nm was monitored continuously for 4 hours at 30° C. on Synergy 2 plate reader. The reaction rate was calculated using the 3 to 4 h time frame. Percent inhibition was obtained by comparison of reaction rate with that of a control (i.e. in the absence of test compound). IC50 values were calculated from a series of percent inhibition values determined at a range of inhibitor concentrations using software routines as implemented in the GraphPad Prism software package.

[4] = target: unphosphorylated c-KIT kinase (uKIT, Seq. ID no. 2) (Homo sapiens, UniProt P10721); assay: biochemical
unphosphorylated c-KIT kinase (uKIT, Seq. ID no. 2), sequence (P10721 with tags, fused parts or gaps): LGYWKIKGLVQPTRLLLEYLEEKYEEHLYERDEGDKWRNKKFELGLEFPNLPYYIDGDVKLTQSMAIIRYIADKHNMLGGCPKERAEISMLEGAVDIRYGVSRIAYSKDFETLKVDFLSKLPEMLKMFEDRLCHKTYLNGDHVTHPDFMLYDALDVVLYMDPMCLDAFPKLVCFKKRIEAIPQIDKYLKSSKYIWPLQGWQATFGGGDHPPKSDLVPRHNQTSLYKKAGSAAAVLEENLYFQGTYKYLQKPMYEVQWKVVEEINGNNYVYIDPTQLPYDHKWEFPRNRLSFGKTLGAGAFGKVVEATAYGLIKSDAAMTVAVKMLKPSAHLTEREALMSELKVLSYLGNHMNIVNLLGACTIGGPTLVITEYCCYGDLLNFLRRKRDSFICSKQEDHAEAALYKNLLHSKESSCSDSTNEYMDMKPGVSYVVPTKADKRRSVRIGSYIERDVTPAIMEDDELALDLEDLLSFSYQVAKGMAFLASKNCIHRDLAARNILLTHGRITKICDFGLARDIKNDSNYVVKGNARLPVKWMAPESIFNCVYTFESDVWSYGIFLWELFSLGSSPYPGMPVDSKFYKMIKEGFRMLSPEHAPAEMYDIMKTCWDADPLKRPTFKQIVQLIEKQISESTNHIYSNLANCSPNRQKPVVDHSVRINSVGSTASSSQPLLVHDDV
Method: uKit kinase (Seq. ID No. 2) Assay
In this assay, the oxidation of NADH (thus the decrease at A340 nm) was continuously monitored spectrophometrically. […] The inhibition reaction was started by mixing serial diluted test compound with the above reaction mixture. The absorption at 340 nm was monitored continuously for 4 hours at 30° C. on Synergy 2 plate reader (BioTech).

[5] = system: phospho-FMS in THP-1 cells; assay: cells; details: Homo sapiens, THP-1, read-out: pFMS inhibition in THP-1 cells
Method: In a separate 96 well black clear bottom plate, one hundred and fifty thousand THP-1 cells were added per well in 100 μL in assay medium. Fifty microliters of diluted compound was then added to the cells. […] Lysates were prepared and used to perform the phospho-FMS ELISA as described by the manufacturer (catalog #DYC3268, R & D Systems, Minneapolis, Minn.). GraphPad Prism was used to calculate IC50 values obtained from data generated from the ELISA assay.

[6] = target: unphosphorylated PDGFRβ kinase (uPDGFRβ, Seq. ID No. 3) (Homo sapiens, UniProt P09619); assay: biochemical
unphosphorylated PDGFRβ kinase (uPDGFRβ, Seq. ID No. 3), sequence (P09619 557-1106): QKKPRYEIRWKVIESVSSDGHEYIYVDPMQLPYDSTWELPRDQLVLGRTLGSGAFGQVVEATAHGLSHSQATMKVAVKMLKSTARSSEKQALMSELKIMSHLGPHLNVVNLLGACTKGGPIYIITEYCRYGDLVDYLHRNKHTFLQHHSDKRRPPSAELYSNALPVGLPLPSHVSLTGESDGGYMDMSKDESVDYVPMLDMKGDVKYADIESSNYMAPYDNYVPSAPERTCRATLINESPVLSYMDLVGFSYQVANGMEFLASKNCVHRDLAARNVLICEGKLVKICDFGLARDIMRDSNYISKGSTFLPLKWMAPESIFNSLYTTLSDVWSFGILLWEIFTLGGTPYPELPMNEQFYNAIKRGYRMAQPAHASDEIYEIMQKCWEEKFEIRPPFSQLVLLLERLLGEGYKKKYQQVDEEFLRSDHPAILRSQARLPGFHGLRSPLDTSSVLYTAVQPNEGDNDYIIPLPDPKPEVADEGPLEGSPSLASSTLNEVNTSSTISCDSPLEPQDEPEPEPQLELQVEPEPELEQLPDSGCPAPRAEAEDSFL

[7] = uFMS, enzymatic assay, ATP 500 μM
[8] = uKIT, enzymatic assay, ATP 2000 μM
[9] = uPDGFRb, enzymatic assay, ATP 500 μM

Compound	IC50 [2]	IC50 [3, 7]	IC50 [4, 8]	IC50 [5]	IC50 [6, 9]	IC50 ([3]; IC50 (nM) uFMS, Table 3)	IC50 ([4]; IC50 (nM) uKIT, Table 3)	IC50 ([6]; IC50 (nM) uPDGFRβ, Table 3)	IC50 [1]
Cc1ccc(-c2cc(Oc3ccc(NC(=O)NC(=O)C(C)(C)C)nc3)ccn2)cn1 [Example 73, N-((5-((6′-methyl-[2,3′-bipyridin]-4-yl)oxy)pyridin-2-yl)carbamoyl)pivalamide]	< 10 nM	< 10 nM	> 1000 nM	< 10 nM	100 to 1000 nM				10 to 100 nM
CC(C)C(=O)NC(=O)Nc1ccc(Oc2ccnc(-c3ccc(C4CCN(C)CC4)cc3)c2)cn1 [Example 75, N-((5-((2-(4-(1-methylpiperidin-4-yl)phenyl)pyridin-4-yl)oxy)pyridin-2-yl)carbamoyl)isobutyramide]	< 10 nM	< 10 nM	100 to 1000 nM	< 10 nM	100 to 1000 nM				< 10 nM
CCc1nc(NC(=O)NC(=O)C2CCOCC2)ccc1Oc1ccnc(-c2cnn(C)c2)c1 [Example 83, N-((6-ethyl-5-((2-(1-methyl-1H-pyrazol-4-yl)pyridin-4-yl)oxy)pyridin-2-yl)carbamoyl)tetrahydro-2H-pyran-4-carboxamide]	10 to 100 nM	< 10 nM	> 1000 nM	100 to 1000 nM	> 1000 nM				10 to 100 nM
Cc1cc(NC(=O)NC(=O)C(C)(C)C)ncc1Oc1ccnc(-c2cnn(C)c2)c1 [Example 84, N-((4-methyl-5-((2-(1-methyl-1H-pyrazol-4-yl)pyridin-4-yl)oxy)pyridin-2-yl)carbamoyl)pivalamide]	< 10 nM	< 10 nM	100 to 1000 nM	< 10 nM	100 to 1000 nM				< 10 nM
Cc1ncc(-c2cc(Oc3ccc(NC(=O)NC(=O)C(C)(C)C)nc3C)ccn2)s1 [Example 86, N-((6-methyl-5-((2-(2-methylthiazol-5-yl)pyridin-4-yl)oxy)pyridin-2-yl)carbamoyl)pivalamide]	10 to 100 nM	< 10 nM	> 1000 nM	< 10 nM	> 1000 nM				< 10 nM
COC(C)(C)C(=O)NC(=O)Nc1cc(C)c(Oc2ccnc(-c3cnn(C)c3)c2)cn1 [Example 91, 2-methoxy-2-methyl-N-((4-methyl-5-((2-(1-methyl-1H-pyrazol-4-yl)pyridin-4-yl)oxy)pyridin-2-yl)carbamoyl)propanamide]	< 10 nM	< 10 nM	10 to 100 nM	< 10 nM	100 to 1000 nM				< 10 nM
Cc1nc(NC(=O)NC(=O)C2(C)CCC2)ccc1Oc1ccnc(-c2cnn(C)c2)c1 [Example 92, 1-methyl-N-((6-methyl-5-((2-(1-methyl-1H-pyrazol-4-yl)pyridin-4-yl)oxy)pyridin-2-yl)carbamoyl)cyclobutanecarboxamide]	< 10 nM	< 10 nM	100 to 1000 nM	< 10 nM	100 to 1000 nM				< 10 nM
CC(C)(C)C(=O)NC(=O)Nc1ccc(Oc2ccnc(-c3cnco3)c2)cn1 [Example 93, N-((5-((2-(oxazol-5-yl)pyridin-4-yl)oxy)pyridin-2-yl)carbamoyl)pivalamide]	< 10 nM	10 to 100 nM	> 1000 nM	< 10 nM	> 1000 nM				10 to 100 nM
Cc1cn(-c2cc(Oc3ccc(NC(=O)NC(=O)C(C)(C)C)nc3)ccn2)cn1 [Example 99, N-((5-((2-(4-methyl-1H-imidazol-1-yl)pyridin-4-yl)oxy)pyridin-2-yl)carbamoyl)pivalamide]	10 to 100 nM	< 10 nM	> 1000 nM	< 10 nM	100 to 1000 nM	4 nM	4000 nM	366 nM	10 to 100 nM
Cc1ccc(-c2cc(Oc3ccc(NC(=O)NC(=O)C4CCOCC4)nc3)ccn2)cn1 [Example 103, N-((5-((6′-methyl-[2,3′-bipyridin]-4-yl)oxy)pyridin-2-yl)carbamoyl)tetrahydro-2H-pyran-4-carboxamide]	10 to 100 nM	10 to 100 nM	> 1000 nM	< 10 nM	100 to 1000 nM				10 to 100 nM
Cn1cnc(-c2cc(Oc3ccc(NC(=O)NC(=O)C(C)(C)C)nc3)ccn2)c1 [Example 104, N-((5-((2-(1-methyl-1H-imidazol-4-yl)pyridin-4-yl)oxy)pyridin-2-yl)carbamoyl)pivalamide]	< 10 nM	< 10 nM	> 1000 nM	< 10 nM	> 1000 nM				< 10 nM
Cc1nc(NC(=O)NC(=O)C(C)(C)C)ccc1Oc1ccnc(-c2ccc(C#N)nc2)c1 [Example 107, N-((5-((6′-cyano-[2,3′-bipyridin]-4-yl)oxy)-6-methylpyridin-2-yl)carbamoyl)pivalamide]	10 to 100 nM	10 to 100 nM	> 1000 nM	10 to 100 nM	> 1000 nM				100 to 1000 nM
CCOC(C)(C)C(=O)NC(=O)Nc1ccc(Oc2ccnc(-c3cnn(C)c3)c2)cn1 [Example 123, 2-ethoxy-2-methyl-N-((5-((2-(1-methyl-1H-pyrazol-4-yl)pyridin-4-yl)oxy)pyridin-2-yl)carbamoyl)propanamide]	< 10 nM	< 10 nM	100 to 1000 nM	10 to 100 nM	100 to 1000 nM				10 to 100 nM
CCOC(C)(C)C(=O)NC(=O)Nc1ccc(Oc2ccnc(-c3cnc(C)s3)c2)cn1 [Example 124, 2-ethoxy-2-methyl-N-((5-((2-(2-methylthiazol-5-yl)pyridin-4-yl)oxy)pyridin-2-yl)carbamoyl)propanamide]	10 to 100 nM	< 10 nM	> 1000 nM	10 to 100 nM	> 1000 nM				10 to 100 nM

Continued, in another order:

IC50 [2]	IC50 [3, 7]	IC50 [4, 8]	IC50 [5]	IC50 [6, 9]	IC50 ([3]; IC50 (nM) uFMS, Table 3)	IC50 ([4]; IC50 (nM) uKIT, Table 3)	IC50 ([6]; IC50 (nM) uPDGFRβ, Table 3)	Compound	IC50 [1]
< 10 nM	< 10 nM	> 1000 nM	10 to 100 nM	> 1000 nM				CC(C)(C)C(=O)NC(=O)Nc1ccc(Oc2ccnc(-c3cncs3)c2)cn1 [Example 125, N-((5-((2-(thiazol-5-yl)pyridin-4-yl)oxy)pyridin-2-yl)carbamoyl)pivalamide]	100 to 1000 nM
< 10 nM	< 10 nM	100 to 1000 nM	10 to 100 nM	10 to 100 nM				COC1(C(=O)NC(=O)Nc2ccc(Oc3ccnc(-c4ccc(C)nc4)c3)cn2)CC1 [Example 126, 1-methoxy-N-((5-((6′-methyl-[2,3′-bipyridin]-4-yl)oxy)pyridin-2-yl)carbamoyl)cyclopropanecarboxamide]	10 to 100 nM
< 10 nM	< 10 nM	100 to 1000 nM	10 to 100 nM	100 to 1000 nM				CCOC(C)(C)C(=O)NC(=O)Nc1ccc(Oc2ccnc(-c3cnn(C)c3)c2)c(C)n1 [Example 127, 2-ethoxy-2-methyl-N-((6-methyl-5-((2-(1-methyl-1H-pyrazol-4-yl)pyridin-4-yl)oxy)pyridin-2-yl)carbamoyl)propanamide]	10 to 100 nM
10 to 100 nM	10 to 100 nM	> 1000 nM	< 10 nM	> 1000 nM				COC(C)(C)C(=O)NC(=O)Nc1ccc(Oc2ccnc(-n3cnc(C)c3)c2)cn1 [Example 130, 2-methoxy-2-methyl-N-((5-((2-(4-methyl-1H-imidazol-1-yl)pyridin-4-yl)oxy)pyridin-2-yl)carbamoyl)propanamide]	10 to 100 nM
10 to 100 nM	< 10 nM	> 1000 nM	< 10 nM	> 1000 nM				Cc1nc(NC(=O)NC(=O)C(C)(C)C)ccc1Oc1ccnc(-c2cncs2)c1 [Example 131, N-((6-methyl-5-((2-(thiazol-5-yl)pyridin-4-yl)oxy)pyridin-2-yl)carbamoyl)pivalamide]	10 to 100 nM
< 10 nM	< 10 nM	> 1000 nM	< 10 nM	100 to 1000 nM				COC(C)(C)C(=O)NC(=O)Nc1ccc(Oc2ccnc(-c3cn(C)cn3)c2)cn1 [Example 132, 2-methoxy-2-methyl-N-((5-((2-(1-methyl-1H-imidazol-4-yl)pyridin-4-yl)oxy)pyridin-2-yl)carbamoyl)propanamide]	10 to 100 nM
< 10 nM	10 to 100 nM	> 1000 nM	10 to 100 nM	> 1000 nM				Cc1cn(-c2cc(Oc3ccc(NC(=O)NC(=O)C4(C)CC4)nc3C)ccn2)cn1 [Example 135, 1-methyl-N-((6-methyl-5-((2-(4-methyl-1H-imidazol-1-yl)pyridin-4-yl)oxy)pyridin-2-yl)carbamoyl)cyclopropanecarboxamide]	10 to 100 nM
